Measurements reported in patent publication US7196110B2, “N-substituted tricyclic 3-aminopyrazoles as inhibitors for the treatment of cell proliferative disorders” (Janssen Phamaceutica N.V., priority 2002, dated 2007).
Read-outs that look alike come from different tables or passages of the source.

Biological target: T1, PDGF-receptor beta enzyme comprising the tyrosine kinase domain (Homo sapiens, UniProt P09619)
T1 construct: from amino acid 545 to 1106 of GenBank Access NO: AAA36427
Test: Inhibition of PDGF-receptor kinase activity (cell-free, PLC1 peptide, 33P Flashplate)
Assay type: biochemical
Settings: for inhibition at 10 µM: compound at 10 uM, read-out: Percent Inhibition @ 10 uM
Procedure, shortened: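 The IC50 is the inhibitor level halving kinase activity relative to inhibitor-free wells, measured as 33P captured on a streptavidin-bound biotin-PLC1 peptide. The reaction ran 60 min at 30 °C in pH 8 Tris buffer with 1 mM DTT, 5 μM ATP and the 545–1106 kinase-domain enzyme.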

[1] = PDGF-R kinase activity, read-out: IC50

T1 sequence (P09619 545-1106): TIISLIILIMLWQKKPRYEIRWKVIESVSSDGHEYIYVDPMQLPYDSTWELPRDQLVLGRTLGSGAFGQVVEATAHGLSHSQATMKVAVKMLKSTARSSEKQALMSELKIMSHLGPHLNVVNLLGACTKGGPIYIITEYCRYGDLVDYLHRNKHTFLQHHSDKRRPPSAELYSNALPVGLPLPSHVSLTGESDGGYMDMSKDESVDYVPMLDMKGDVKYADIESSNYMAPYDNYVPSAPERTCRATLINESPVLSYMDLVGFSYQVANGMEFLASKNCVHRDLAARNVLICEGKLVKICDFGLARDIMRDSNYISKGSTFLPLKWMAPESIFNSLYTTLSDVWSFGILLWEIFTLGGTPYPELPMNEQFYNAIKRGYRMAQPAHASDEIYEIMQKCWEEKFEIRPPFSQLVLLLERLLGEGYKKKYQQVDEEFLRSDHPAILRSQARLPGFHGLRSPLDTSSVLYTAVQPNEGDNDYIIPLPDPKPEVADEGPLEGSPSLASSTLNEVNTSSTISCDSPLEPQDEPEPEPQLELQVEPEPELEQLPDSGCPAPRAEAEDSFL

inhibition at 10 µM (PDGF-R kinase activity)	IC50 [1]	IC50 (read-out: IC50 (μM) on PDGF-R kinase activity)	Compound
71%	2.11 µM	–	COCCCOc1ccc2c(c1)Cc1c-2n[nH]c1Nc1cccc(C(=O)OC)c1 [Compound 137, 3-[6-(3-Methoxy-propoxy)-2,4-dihydro-indeno[1,2-c]pyrazol-3-ylamino]-benzoic acid methyl ester]
92.5%	0.0989 µM	–	CN(C)CCCOc1ccc2c(c1)Cc1c-2n[nH]c1Nc1ccc(F)cc1 [Compound 159, [6-(3-Dimethylamino-propoxy)-2,4-dihydro-indeno[1,2-c]pyrazol-3-yl]-(4-fluoro-phenyl)-amine]
61%	5.82 µM	–	COc1ccc2c(c1)Cc1c-2n[nH]c1Nc1cc(OC)ccc1OC [Compound 85, (2,5-Dimethoxy-phenyl)-(6-methoxy-2,4-dihydro-indeno[1,2-c]pyrazol-3-yl)-amine]
78.5%	0.451 µM	–	Cc1ccc(Cl)cc1Nc1[nH]nc2c1Cc1ccccc1-2 [Compound 338, (5-Chloro-2-methyl-phenyl)-(2,4-dihydro-indeno[1,2-c]pyrazol-3-yl)-amine]
106%	–	0.026 µM	COc1cc2c(cc1O)-c1n[nH]c(Nc3cccc(F)c3)c1C2 [Compound 608, 3-(3-Fluoro-phenylamino)-6-methoxy-2,4-dihydro-indeno[1,2-c]pyrazol-7-ol]
97%	0.0295 µM	–	COc1cc2c(cc1OC)-c1n[nH]c(Nc3cccc(C(C)O)c3)c1C2 (stereo not drawn) [Compound 278, 1-[3-(6,7-Dimethoxy-2,4-dihydro-indeno[1,2-c]pyrazol-3-ylamino)-phenyl]-ethanol]
22%	0.0547 µM	–	COc1cc2c(cc1OC)-c1n[nH]c(NCc3cccc(OC)c3OC)c1C2 [Compound 322, (2,3-Dimethoxy-benzyl)-(6,7-dimethoxy-2,4-dihydro-indeno[1,2-c]pyrazol-3-yl)-amine]

Continued, molecule first:

Compound	inhibition at 10 µM (PDGF-R kinase activity)	IC50 [1]	IC50 (read-out: IC50 (μM) on PDGF-R kinase activity)
COc1cc2c(cc1OC)-c1c(c(Nc3cccc(F)c3)nn1C(=O)c1ccc(F)cc1)C2 [Compound 492, (4-Fluoro-phenyl)-[3-(3-fluoro-phenylamino)-6,7-dimethoxy-4H-indenol[1,2-c]pyrazol-1-yl]-methanone]	78%	0.472 µM	–
COc1cc2c(cc1OC)-c1n[nH]c(NCc3ccc(F)c(F)c3)c1C2 [Compound 275, (3,4-Difluoro-benzyl)-(6,7-dimethoxy-2,4-dihydro-indeno[1,2-c]pyrazol-3-yl)-amine]	80.5%	0.501 µM	–
N#Cc1ccc2c(c1)CCc1c-2n[nH]c1Nc1ccccc1 [Compound 350, 3-Phenylamino-4,5-dihydro-2H-benzo[g]indazole-7-carbonitrile]	91%	0.651 µM	–
COc1ccc(C(=O)n2nc(Nc3cccc(F)c3)c3c2-c2cc(OC)c(OC)cc2C3)cc1 [Compound 458, [3-(3-Fluoro-phenylamino)-6,7-dimethoxy-4H-indeno[1,2-c]pyrazol-1-yl]-(4-methoxy-phenyl)-methanone]	70.5%	7 µM	–
CCOc1cccc(Nc2[nH]nc3c2C(CC)c2cc(OC)c(OC)cc2-3)c1 (stereo not drawn) [Compound 505, (3-Ethoxy-phenyl)-(4-ethyl-6,7-dimethoxy-2,4-dihydro-indeno[1,2-c]pyrazol-3-yl)-amine]	97%	0.134 µM	–
COc1cc2c(cc1OC)C(C)c1c-2n[nH]c1Nc1cccnc1Cl (single isomer, unassigned) [Compound 559, (2-Chloro-pyridin-3-yl)-(6,7-dimethoxy-4-methyl-2,4-dihydro-indeno[1,2-c]pyrazol-3-yl)-amine]	102%	0.0371 µM	–
COc1cc2c(c(Cc3ccccc3)c1O)-c1n[nH]c(Nc3cccc(F)c3)c1C2 [Compound 606, 8-Benzyl-3-(3-fluoro-phenylamino)-6-methoxy-2,4-dihydro-indeno[1,2-c]pyrazol-7-ol]	53.5%	–	–
